These results are taken from a melting point compilation (Tetko et al.; mined from patent text by program, amines drawn as free bases though some values may be those of a salt).

A word on the melting point: it is the temperature of the solid-liquid transition. In the case of `CC(=O)Nc1cccc(C(=O)Nc2cc(NC(=O)c3cccc(N(C)C)c3)ccc2C)c1`, the melting point is 178 to 179 °C.

Take `O=C1Nc2c(C(F)(F)F)cccc2C1(O)c1cc(Cl)ccc1O` (stereo unspecified): the melting point is 205 to 207 °C.

The compound `CNC(=S)C1=CC(C)(C(F)(F)F)Oc2ccc([N+](=O)[O-])cc21` (stereo unspecified) yielded a melting point of 158 to 160 °C.

In turn, `COc1cc2c(cc1O)CC(C)(C)NC2` returned a melting point of 170 to 173 °C.

For the compound `NC(=O)C(OCc1ccc(Cl)cc1)(C(F)(F)F)C(F)(F)F`, the melting point is 94 to 95 °C.

`CNC(=O)C1CN(CCCC(c2ccc(F)cc2)c2ccc(F)cc2)CCN1CC(=O)Nc1c(C)cc(C)cc1C` (stereo unspecified): the melting point stood at 90.2 °C.

As to `CCOC(=O)c1nc(C)oc1C(=O)NC(C)(C)C`, the melting point lay within 152 to 155 °C.

The compound `Cc1ccc(S(=O)(=O)OCC2Cc3cccc(-c4cccc(C(F)(F)F)c4)c3O2)cc1` (stereo unspecified) yielded a melting point of 90 to 93 °C.

For the compound `CN1C(=O)C(O)N(C2CCCCC2)C1=O` (stereo unspecified), the melting point lay within 140 to 141 °C.

`CCCc1c(OCCCOc2ccccc2)ccc2c1OC(CCC(=O)OC)(CCC(=O)OC)CC2=O`: the melting point amounted to 100 °C.

Regarding `COc1ccccc1C(=O)c1cccc(NC(=O)c2ccn3c2CSC3c2cccnc2)c1` (stereo unspecified), the melting point was 184 °C.

Regarding `O=Cc1cn(C2CCCCC2)nc1-c1ccc([N+](=O)[O-])o1`, the melting point fell in the range of 150 to 151 °C.

In turn, `C=C(C)Cn1nc(C(=O)c2cccc(O)c2)c2ccccc21` registered a melting point of 75 to 78 °C.

As for `Cc1oc(-c2ccccc2)nc1COc1ccc(OCc2oc(-c3ccccc3)nc2C=O)cc1`, the melting point lay in the range of 127 to 128 °C.

The compound `Nn1c(C(F)(F)F)cc(=O)n(-c2c(F)cc(Cl)c3c2ONC3c2ccccc2)c1=O` (stereo unspecified) showed a melting point of 171 to 173 °C.

In turn, `O=C(Cn1cncn1)c1ccc(Cl)cc1` yielded a melting point of 151 to 153 °C.

Turning to `CCCCN(C(=O)c1cc(C(C)(C)C)c(OC(=O)c2cc(C(C)(C)C)c(O)c(C(C)(C)C)c2)c(C(C)(C)C)c1)C1CC(C)(C)N(OC(C)=O)C(C)(C)C1`, the melting point fell in the range of 230 to 232 °C.

On to `O=[N+]([O-])c1ccccc1COc1ccc2ncc3c(c2c1)C(O)CCC3` (stereo unspecified), for which the melting point lay in the range of 181 to 183 °C.

Turning to `CCCC1(OC(C)=O)CCC2C3CCC4CC(=O)CC(C)C4(C)C3CCC21C` (stereo unspecified), the melting point is 128 to 129 °C.

In the case of `COc1cc([N+](=O)[O-])c(NCCCO)cc1O`, the melting point was 149 °C.

In turn, `Nc1ccc(Sc2ccccc2)cc1C(F)(F)F` returned a melting point of 63 to 66.5 °C.

`CCS(=O)(=O)c1ccc2c3c(cccc13)C(=O)N2` had a melting point of 270 to 272 °C.

Take `CCOc1ccc2c(c1)n(C1CCCCC1)c(=O)n2Cc1ccc(NC(=NC#N)NC)cc1OC`: the melting point came to 195 °C.

The compound `NC(=O)C(CCCCCOc1c(Cl)ccc(C=O)c1[N+](=O)[O-])N1CCCCC1` (stereo unspecified) came in with a melting point of 98 to 99 °C.

`Cc1c(C(=O)c2ccc3ccccc3c2)cccc1[N+](=O)[O-]` showed a melting point of 100 to 102 °C.

With `S=C(N1CCCCC1)C1(c2ccccn2)CCCS1` (stereo unspecified), the melting point turned out to be 90 °C.

The compound `CP(C)(=O)c1ccc(C(=O)O)cc1` displayed a melting point of 101 °C.

With `O=C(Cc1ccc(C(F)(F)F)cc1)c1ccccc1`, the melting point is 143 to 144 °C.

`Cc1cc(-c2cccc(Cl)c2C=O)ccc1F`: the melting point was 74 to 79 °C.

In the case of `S=S1N=C2SCSC2=N1`, the melting point was determined as 99 °C.

`O=c1c(Cc2ccccc2)cn2c3ccc(Cl)cc3c3cc(Cl)cc1c32` gave a melting point of 206 to 209 °C.

As to `O=c1[nH]c2c(c(=O)[nH]1)N=CCN2CCCCN1CCC(OC(c2ccccc2)c2ccccc2)CC1`, the melting point lay within 157 to 159 °C.

In turn, `COc1cc2c(cc1S(=O)(=O)c1ccccc1)[C@@H](N1CCCCC1=O)[C@H](O)C(C)(C)O2` (relative stereo) had a melting point of 157 to 158 °C.

`CN(C)C(=O)C1Cc2c(c(Cl)cc(F)c2N2C(=O)C3=C(CCCC3)C2=O)O1` (stereo unspecified) came in with a melting point of 190 to 193 °C.

`COc1ccc(N(C)CCN(C)CCCN2CCc3cc(OC)c(OC)cc3NC2=O)cc1OC` displayed a melting point of 117 to 119 °C.

`COc1ccc2sn(C(C)(C)C)c(=O)c2c1` showed a melting point of 92 to 94 °C.

In turn, `CCOC(=O)Cc1c(-c2ccccc2)nn2cccnc12` showed a melting point of 86 to 89 °C.

On to `CC(C)N1CCC(NC(=O)Nc2ccccc2CCc2cc(C(C)(C)C)c(O)c(C(C)(C)C)c2)CC1`, for which the melting point lay within 191 to 193 °C.

In turn, `CC(CN(O)C(N)=O)OCc1ccco1` (stereo unspecified) had a melting point of 59 to 62 °C.

The compound `N=C(N)c1ccc(N2CC(CN3CCCC(C(=O)O)C3)OC2=O)cc1` (stereo unspecified) yielded a melting point of 198 °C.

`O=C(C=Cc1ccncc1)c1cccs1` yielded a melting point of 150 to 152 °C.

`Cc1ccc(C(=O)C2=C(O)C(=O)N(c3ccc(C)nn3)C2c2ccc(OC3CCN(C)CC3)cc2)cc1` (stereo unspecified) showed a melting point of 259 to 260 °C.

`O=c1c(CCCO)c(O)c2cccnc2n1-c1ccccc1`: the melting point lay within 218 to 220 °C.

For `CC(CCCC(C)(O)CO)C1CCC2C3CC=C4CC(O)CCC4(C)C3CCC12C` (stereo unspecified), the melting point fell in the range of 173 to 176 °C.

The compound `C#CCCCCCC(=O)Nc1nc2nn(C)cc2c2nc(-c3ccco3)nn12` showed a melting point of 204 to 208 °C.

In turn, `CCc1nn(-c2cc([N+](=O)[O-])ccc2Br)c(=O)n1Cc1ccc(-c2ccccc2S(=O)(=O)NC(C)(C)C)cc1F` came in with a melting point of 223 to 225 °C.

In turn, `CS(=O)(=O)Nc1ccc(/C=C\COCCCCCCNCC(O)c2cc(O)cc(O)c2)cc1` (stereo unspecified) returned a melting point of 79 to 82 °C.

The compound `CCCCCCCNC(=O)Nc1ccccc1C(=O)NCCCC1CCN(C(c2ccccc2)c2ccccc2)CC1` had a melting point of 123 to 124 °C.

Compound `CC(O)(CC(=O)O)c1ccc(Oc2ccccc2)cc1` (stereo unspecified) had a melting point of 137 to 138 °C.

With `N=C(NCC1(c2ccc(Cl)cc2)CC1)NN=Cc1c(Cl)cccc1Cl`, the melting point lay within 126 to 128 °C.

Compound `CCCC[C@H]1CC[C@H](c2ccc(CCc3ccc(OC(F)F)cc3)cc2)CC1` yielded a melting point of 32 °C.

Consider `CC(C)(C)OC(=O)N1CCC(NCc2cccc(NC(=O)c3ccc(F)cc3)n2)CC1`, for which the melting point stood at 77.7 °C.

`COc1c(Cl)cc2c(Cl)nc(Cl)nc2c1OC` came in with a melting point of 154 to 155 °C.

The compound `S=c1nc(-c2ccc(Cl)cc2Cl)[nH]n1Cc1ccccc1` came in with a melting point of 169 to 170 °C.

`O=S(=O)(Nc1ccc(C2=NC3(O)c4ccc(Cl)cc4CC3S2)cc1)c1ccc(Cl)cc1` (stereo unspecified) yielded a melting point of 116 °C.

`CCCCNCc1ccc2cc(O)ccc2c1` returned a melting point of 108 to 112 °C.

Take `NNC(=O)c1ncn2c1C1CCN1C(=O)c1sccc1-2` (stereo unspecified): the melting point fell in the range of 260 to 263 °C.

As to `Cc1noc(C)c1COc1cc(-n2c(=O)cc(C(F)(F)F)n(C)c2=O)c(F)cc1Cl`, the melting point lay in the range of 120 to 123 °C.

As to `COc1ccc(CNc2ncc3c(n2)N(c2ccccc2)C(=O)N(c2c(Cl)cccc2Cl)C3)cc1`, the melting point stood at 56 °C.

`COc1ccc2cc(C3CCN(C[C@H](O)COc4cccc5oc(C6=NC(C)(C)CO6)cc45)CC3)ccc2c1`: the melting point fell in the range of 133 to 134 °C.

Take `CNC(=O)OC1CCC2(CO2)C(C2(C)OC2CC=C(C)C)C1OC` (stereo unspecified): the melting point lay in the range of 92 to 93 °C.

`CCCCc1nc2ccccc2n1CC(=O)O` came in with a melting point of 70 to 71 °C.

Take `CCC(=S)NC[C@H]1CN(c2ccc(N3CCN(C(=O)CCC(=O)c4ccc(CN(C)C)cc4)CC3)c(F)c2)C(=O)O1`: the melting point amounted to 169 °C.

On to `C[C@H](NC(=O)OC(C)(C)C)C(=O)N(CC(=O)N1CCC[C@H]1C(=O)OCc1ccccc1)C1Cc2ccccc2C1`, for which the melting point is 135 to 136 °C.

Take `Cn1cc2c(C3C(=O)Nc4ccc(Br)cc43)nc(NCCN)nc2n1` (stereo unspecified): the melting point fell in the range of 260 to 262 °C.

`CCc1nc2ccccn2c1S(N)(=O)=S` (stereo unspecified) displayed a melting point of 169 to 171 °C.

`CC(=O)Nc1ccc(S(F)(F)(F)(F)F)cc1[N+](=O)[O-]` came in with a melting point of 135 to 138 °C.

For `CN(C)c1ccc(C(=O)C#Cc2cccc(OCc3ccccc3)c2)cc1`, the melting point fell in the range of 134 to 136 °C.

For `COc1ccc(-c2cnc3cc4cnn(CC#N)c4cc3n2)cc1F`, the melting point lay in the range of 248 to 252 °C.

`O=C(CN1CCC(Cc2ccc(F)cc2)CC1)Nc1ccc(O)cc1` showed a melting point of 70 to 77 °C.

`C=CCC1(CC=C)c2cc(Br)ccc2-c2ccc(N(c3ccccc3)c3ccccc3)cc21` displayed a melting point of 141 to 143 °C.

As to `Cc1ccc(-c2ccc3cc(C(=O)Nc4ccc(CN(C)C5CCOCC5)cc4)[nH]c3c2)cc1`, the melting point lay in the range of 246 to 250 °C.

As to `O=C(NO)NCCc1cc2ccccc2o1`, the melting point was in the range of 157 to 158 °C.

With `CC(=O)SCCC(=O)N(C)c1nnc(-c2cccnc2)s1`, the melting point lay within 133 to 135 °C.

On to `O=C(NCc1ccc(Cl)cc1)c1cn(CCO)c2sc(CCCO)cc2c1=O`, for which the melting point was 174 to 178 °C.

In turn, `CCC1CC2C3CCC4=CC(=O)CCC4C3CCC2(C)C1OC(=O)CBr` (stereo unspecified) had a melting point of 118 to 120 °C.

Compound `O=C(Nc1cc(-c2c(-c3ccc(F)cc3)nc3cccnn23)ccn1)c1ccc(Cl)nc1` registered a melting point of 247 to 248 °C.

Compound `Cc1cc2c(cc1C(F)(F)F)NC(=O)CC(c1cccc(-n3nncc3CNC3CC3)c1)=N2` returned a melting point of 181 °C.

In the case of `O=S(=O)(Nc1cccc(F)c1)c1cc(S(=O)(=O)Nc2cccc(F)c2)c2cc(O)ccc2c1`, the melting point lay in the range of 110 to 112 °C.

The compound `Cc1ccc(Nc2nc(=O)cc(N)n2-c2ccccc2)cc1` returned a melting point of 207 to 210 °C.

As to `CCCCCCOc1ccc(CCCCCCCCC(=O)O)cc1`, the melting point was in the range of 79 to 81 °C.

`O=C(Oc1ccc2cc(CN3CCCC3)ccc2c1)N1CCC(c2ccc(Cl)cc2)CC1`: the melting point lay in the range of 121 to 123 °C.

On to `CC(C)(C)N(NC(=O)c1cncc(Br)c1)C(=O)c1ccc(Cl)cc1`, for which the melting point was 193 to 197 °C.

Compound `COc1ccc(CN2C(=O)CC[C@@]3(C)c4ccc(Cl)cc4CC[C@H]23)cc1` (relative stereo) registered a melting point of 55 to 60 °C.

Consider `N#CCCCCCCCCCOc1cccc(C(N)=O)c1`, for which the melting point was in the range of 96 to 97 °C.

Turning to `C#Cc1cnc2sc(SCCCCCCC)nn2c1=O`, the melting point was 140 to 142 °C.
